Assay results: patent US20150315202A1, “CHLORIN DERIVATIVE USEFUL IN PHOTODYNAMIC THERAPY AND DIAGNOSIS” (RMW CHO GROUP LIMITED, priority 2012, published 2015)
“Also recorded” adds a separate entry of the source. Where two headings read alike, the source gives them in different places.

Key:
S180 sarcoma = test: Photodynamic therapy study with mice with subcutaneous S180 sarcoma; type: in vivo, Kunming mice; settings: for Pathological changes of tumour tissues (HE staining): 24 hours after the treatment; for Living tumour cells versus control group D (FCM) / Proportions of apoptotic and necrotic tumour cells versus control group D (FCM): 24 hours after treatments; for Mean tumour volume versus control group D: 21 days after the treatments, P<0.05; for Tumour appearance after treatment (eschars): after treatments; for Sizes of tumours versus control group D: six days after the treatments; for Tumour inhibition rate: tail vein: Duteroporphyrin 10 mg/kg, chlorin e4 sodium 20 mg/kg, 5-ALA 100 mg/kg, laser 20 minutes, 180 J/cm^2
Method: In this experiment the effects of photodynamic therapy mediated by three different photosensitizers, namely Duteroporphyrin, chlorin e4 sodium and 5-ALA, on mouse S180 sarcoma were observed. Duteroporphyrin and 5-ALA are porphyrin derivatives.
40 Kunming mice with well grown subcutaneous S180 sarcoma were randomly divided into four groups: (A) Duteroporphyrin group (10 mg/kg), (B) chlorin e4 sodium group (20 mg/kg), (C) 5-ALA group (100 mg/kg) and (D) blank control group. The mice in groups A and B were subjected to irradiation 8-10 hours after tail vein injection of the photo sensitizers, while the mice in group C were subjected to irradiation 3 hours after tail vein injection of the photosensitizer. A laser with a wavelength of 630 nm was used for groups A and C, while a duel-frequency laser with wavelengths of 660 nm and 760 nm was used for group B. The local tumour sites were irradiated vertically, with the diameter of the laser spots being 1.2-1.5 cm. The whole tumour and 3-5 mm of normal tissue around the tumour were covered by the laser. The lasers were applied to groups A, B and C for 20 minutes, with a power density of 150 mW/cm^2 and an energy density of 180 J/cm^2. The mice in control group D were not subjected to irradiation.

[1] = air-saturated water and ethanol; literature value of the reference; cited from earlier work
[2] = literature value of the reference, cited from earlier work
[3] = system: indomethacin-induced gastric lesions; settings: rats; cited from earlier work
[4] = system: TAA- or CCl4-induced acute liver injuries; settings: mice; cited from earlier work
[5] = system: advanced non-small cell lung cancer; test: Clinical study with patients suffering from advanced non-small cell lung cancer; type: in vivo, human
Method: Through pathology or cytology diagnosis, 66 advanced non-small cell lung cancer patients were selected and randomly divided into two groups. Group A had 32 patients who were treated with chlorin e4 sodium. Group B had 34 patients who were treated with both chemotherapy and radiotherapy.
For group A, chlorin e4 sodium was administered at a dosage of 2 mg per kilogram of body weight, with two thirds administered by inhalation and one third administered orally. After the irradiation target(s) had been determined, an optical fibre for laser treatment purposes was guided into the lung tumor(s) via an interstitial procedure. Irradiation light intensity was 200 J/cm^2, irradiation power was 1,000 mW, and irradiation lasted for eight to ten minutes. Laser irradiation into the tumor was two to five centimeters in depth. Irradiation was either performed phase by phase (sub-paragraph treatment) based on tumor size or performed repeatedly.
For group B, for the radiotherapy, a 15 MV X-ray radiation therapy irradiation field covered primary lung tumor lesion(s) and mediastinal lymphatic drainage area, with a dosage of 65-70 Gy, administered on every first day in a week of radiotherapy. For the chemotherapy, 20 mg cisplatin was administered by intravenous application.

[6] = treatment of various human ailments; cited from earlier work
[7] = group A (32 patients): chlorin e4 sodium 2 mg/kg inhalation and oral + interstitial laser, group B (34 patients): cisplatin 20 mg iv + radiotherapy

| Compound | Pathological changes of tumour tissues (HE staining) (S180 sarcoma) | Living tumour cells versus control group D (FCM) (S180 sarcoma) | Proportions of apoptotic and necrotic tumour cells versus control group D (FCM) (S180 sarcoma) | Mean tumour volume versus control group D (S180 sarcoma) | Tumour appearance after treatment (eschars) (S180 sarcoma) | Sizes of tumours versus control group D (S180 sarcoma) | Tumour inhibition rate (S180 sarcoma) [%] | other results |
| --- | --- | --- | --- | --- | --- | --- | --- | --- |
| NCC(=O)CCC(=O)O [5-ALA] | a wide range of tumour necrosis, tumour vascular disruption and neutrophil infiltration | obviously fewer | a lot higher | statistically significantly smaller | thinner and brownish red in colour | no obvious difference | 37.2 | Recovery of skins and fur (S180 sarcoma; after the eschars had fallen off): fully recovered; also recorded: fastest in skin repairing |
| CC1=Cc2cc3[nH]c(cc4nc(cc5[nH]c(cc1n2)cc5C)C(C)=C4CCC(=O)O)c(CCC(=O)O)c3C [Duteroporphyrin] | a wide range of tumour necrosis, tumour vascular disruption and neutrophil infiltration | obviously fewer | a lot higher | statistically significantly smaller | Black eschars | no obvious difference | 62.5 | Recovery of skins and fur (S180 sarcoma; mouse, in vivo): fully recovered |
| O=S(=O)(O)c1ccc(-c2c3nc(c(-c4ccc(S(=O)(=O)O)cc4)c4ccc([nH]4)c(-c4ccc(S(=O)(=O)O)cc4)c4nc(c(-c5ccc(S(=O)(=O)O)cc5)c5ccc2[nH]5)C=C4)C=C3)cc1 [TPPS, m-tetrakis(p-sulfonatophenyl)porphine] | – | – | – | – | – | – | – | Fluorescence quantum yield [1]: 0.08; Quantum yield of singlet oxygen photogeneration ([2]; ethanol and detergent containing water): 0.7; Quantum yield of singlet oxygen photogeneration ([2]; water): 0.6 |
| C=Cc1c(C)c2cc3nc(c(C)c4[nH]c(cc5nc(cc1[nH]2)C(C)=C5CC)c(C)c4C(=O)O)[C@@H](CCC(=O)O)[C@@H]3C [chlorin e4] | – | – | – | – | – | – | – | Effect against indomethacin-induced gastric lesions [3]: protective effect; Effect against TAA- or CCl4-induced acute liver injuries [4]: protective effect |
| N.N.[Cl][Pt][Cl] [cisplatin, reference compound] | – | – | – | – | – | – | – | One year survival rate [5, 7]: 70.60%; Two years survival rate [5, 7]: 32.35%; Combined complete and partial remission rate ([5]; group A: chlorin e4 sodium 2 mg/kg + interstitial laser, group B: cisplatin 20 mg iv + radiotherapy): 21.30% |
| tri-sodium copper(II) chlorin e6 | – | – | – | – | – | – | – | Toxicity and side effects [6]: no evidence of toxicity, skin sensitization or other serious side effects |
